Experimental data from patent US6733759B2, “Nutrient formulation and process for enhancing the health, livability, cumulative weight gain or feed efficiency in poultry and other animals” (Novus International, Inc., priority 1995, dated 2004).

Tested on: IgA in the bile
Assay: IgA in bile by indirect ELISA in birds given 1027 with or without adjuvants
Type: in vivo, chickens
Conditions: day 21 after oral vaccine and adjuvant in 1027
Text: IgA is the antibody class associated with resistance to diseases which attack the intestinal mucosa, such as coccidiosis.
The data presented in FIG. 5 were obtained by indirect enzyme linked immunosorbent assay (ELISA) using monoclonal mouse anti-chicken IgA as the first antibody, polyclonal goat anti-chicken IgA as the second antibody, and biotin-conjugated anti-goat immunoglobulin for detection. Samples were read on an automated ELISA plate reader, and are corrected for differences in dilution.

In the case of c1ccc([C@H]2CN3CCSC3=N2)cc1 [levamisole], the “IgA in the bile vs 1027 alone” value is reported as “higher day 21 biliary IgA levels”.
